# Test results published in patent publication US11026443B2, “Use of sedoheptulose as a nutritional supplement” (C7 SUGAR GMBH, priority 2013, dated 2021).
# How the values were obtained:
# [1] = tested on: sedoheptulose kinase (CARKL); test: Sedoheptulose kinase assay (ADP Quest, ADP formation); assay type: biochemical; details: constant amount of recombinant CARKL, constant ATP 150 μM, increased doses of sedoheptulose
# Description: The ADP Quest Assay (DiscoveRx) was used to indirectly measure […] formation by ADP accumulation over time according to the manufacture instructions. Recombinant sedoheptulose kinase was previously produced in E. coli and purified by affinity purification ([…] et al., Cell Metab. 15 (2012), 813-826).
# [2] = tested on: primary bone marrow derived macrophages; test: Basal cytokine mRNA expression in primary bone marrow derived macrophages in GF or GFS media; assay type: cell-based, mouse; details: pre-cultured two days in GFS vs GF media
# Experimental: (§1) Mouse bones were isolated from male wild-type and CARKL overexpressing mice and bone marrow wash flushed, washed and cleared from red blood cells by lysis, and subsequently differentiated in DMEM containing 25 mM glucose and 20 ng/ml M-CSF. After 4 days, cells for osteoclast differentiation were harvested and seeded in corning osteo assay plates with differentiation media (see below), and for primary bone marrow derived macrophages (BMDM) the medium was renewed and further supplemented with M-SCF for two days. Differentiated BMDM were then seeded in respective DMEM-media containing 10% FBS and indicated carbohydrate mixes at 3 g/L (glucose and fructose (GF), or glucose, fructose and sedoheptulose (GFS)) at least two days before experiments were performed.
# (§2) Briefly, total RNA was extracted and reverse-transcribed using commercial kits (QIAGEN, Applied Biosystems). Quantitative real-time PCRs were performed on an AbiPRISM 7900HT real-time cycler using iTaq SYBR Green Supermix with ROX (BioRad) to measure CARKL, adiponectin, UCP-1, TNFa, IL-6, MCP-1, and beta-actin expression as previously described (Haschemi et al., Cell Metab. 15 (2012), 813-826). Expression of target gene was normalized to beta-actin expression. Relative expression of target gene was calculated by the delta-delta CT method.
# [3] = Diet-derived sedoheptulose uptake in humans (serum GC-MS before/after carrot meal); assay type: in vivo, human; details: two hours after meal of mainly steamed carrots (~700 g) vs overnight fasted, n=4
# Description: Fresh carrots with an Austrian “organic-certificate” were sliced into small pieces and snap-frozen in liquid nitrogen. The same procedure was applied to leaves freshly harvested from indoor-grown Sedum Spectabile plants. Three samples of each tissue were pooled and homogenized to powder by glass-beads. The carbohydrate rich fractions of the samples were isolated by 20% H2O and 80% MeOH extraction solution spiked with 13C standards and processed for standard gas-chromatography coupled to mass spectrometry (GC-MS). Glucose and sedoheptulose were identified by their individual masses and their relative amount was derived from the peak area of each individual analyte normalized to 13C content. Glucose and sedoheptulose were also measured in equal volumes of serum from overnight fasted or carrot fed individuals. The carrots were steamed and some olive-oil, salt and pepper were used for flavour. Two hours before and two hours after the carrot containing meal human serum was prepared in VACUETTE® Z Serum Sep tubes from blood. Serum samples were processed as previously described and also analyzed by GC-MS as detailed above and in Ruiz-Matute A I et al., Chromatogr B Analyt Technol Biomed Life Sci. (2011) May 15 879(17-18).
# [4] = target: T1, Glucose-6-phosphate dehydrogenase (G6PD) (Mus musculus, UniProt Q00612); test: Glucose-6-phosphate dehydrogenase activity assay (enzyme histochemistry) in hepatocytes; assay type: cell-based; details: WT cells incubated in cell culture media with sedoheptulose; data not shown
# T1 construct: Hepatocytes were isolated from male wild-type and CARKL overexpressing mice; endogenous in cells; host or cells: primary mouse hepatocytes (WT and CARKL-transgenic)
# Experimental: (§3) Hepatocytes were isolated from male wild-type and CARKL overexpressing mice after the mice were sacrificed by hepatic in situ collagenase perfusion. After perfusion, the liver was quickly removed, minced, and filtered through a cell strainer (Fisher Scientific, Inc) into a 50 ml sterile tube. Hepatocytes in the resulting filtrate were purified from the nonparenchymal cells by centrifugation steps. The isolated hepatocytes were seeded into plates at a concentration of 0.25×10^6/ml in respective DMEM-media containing 10% FBS and indicated carbohydrate mixes at 3 g/L (glucose and fructose (GF), or glucose, fructose and sedoheptulose (GFS)) at least two days before experiments were performed.
# Cells were grown on polystyrene vessel tissue culture treated glass slides, snap frozen in liquid nitrogen and kept at −80° C. The enzyme histochemical procedure was based on the tetrazolium salt method as described by Van Noorden and Frederiks. […] The medium was freshly prepared immediately before incubation. Control reactions additionally contained 40 mM glucosamine-6-phosphate. Cells were incubated at room temperature for 15 minutes under continuous mixing by orbital shaker. After incubation, cells were washed 3×5 minutes in 60° C. phosphate buffered saline, dried, and mounted in glycerol gelatin, and photographed within one day at ×10 magnification.
# primary human adipocytes [5] = test: Oxygen consumption rate and extracellular acidification rate (XF-Analyzer) in primary human adipocytes; assay type: cell-based; details: human adipocytes differentiated and cultured in sedoheptulose containing media vs controls
# Experimental: Stromal vascular fraction cells (SVFs) from subcutaneous white adipose tissue of a patient undergoing abdominal surgery were isolated as described before (Lindroos et al, Cell Metab. (2013), Jul. 2; 18(1):62-74.). Briefly, adipose tissue was digested with Collagenase II (Worthington) and filtered. SVFs were separated from mature adipocytes by centrifugation, followed by the lysis of erythrocytes in the SVF-fraction (Buffer EL, Qiagen). The purified SVFs were cultured in DMEM/F12, 10% FBS (Gibco, Life Technologies). As soon as the cells reached confluence, they were washed with DMEM/F12 w/o glucose (Biowest) and the medium was replaced by DMEM/F12 with a total carbohydrate load of 3 g/L, containing 1.5 g/L glucose and fructose or 1 g/L each of glucose, fructose, and sedoheptulose, respectively. […]
# (§4) The XF-Analyzer (Seahorse Bio.) was used to measure changes in cellular metabolism induced by different carbohydrates. Extracellular acidification rates (ECAR, mpH/min) and oxygen consumption rates (OCR, pmoles/min) were recorded in primary human adipocytes and primary murine hepatocytes according to the manufacture instructions. […] Changes induced by the different carbohydrate sources were expressed as relative change in % to illustrate the effect of each carbon source.
# mature murine adipocytes = test: Cytokine mRNA expression in mature murine adipocytes (ceiling culture) in GF or GFS media; assay type: cell-based, mouse; details: three days in sedoheptulose containing media vs glucose and fructose alone
# Experimental: Anterior and posterior subcutaneous adipose tissue and epididymal white adipose tissue was isolated from transgenic CARKL-mice and wild-type littermate controls. Adipose tissue was digested as described above for the human sample. After centrifugation, the layer of floating mature adipocytes was removed and re-centrifuged at 100 rcf for 10 minutes. 150 μL of packed adipocytes were cultured under a floating coverslip in six-well plates, in DMEM/F12, 15% calf serum (PAA). 24 hours after isolation, the wells were washed twice with PBS and the medium was exchanged to DMEM/F12 with a total carbohydrate load of 3 g/L, containing 1.5 g/L glucose and fructose, or 1 g/L each of glucose, fructose and sedoheptulose, respectively. Three days later, the cells were harvested for RNA isolation using TRIreagent (Sigma).
# as §2
# osteoclasts = test: In vitro bone resorption assay (osteoclast pit formation); assay type: cell-based, mouse
# Experimental: as §1, with “performed. Osteoclast precursor cells (bone marrow cells treated with 20 ng/ml M-CSF for 4 days) were plated in 24-well Corning Osteo Assay plate in the presence of 10 ng/ml M-CSF and 100 ng/ml RANKL in alpha-MEM medium containing 10% FBS and 3 g/L either glucose and fructose (GF), or glucose, fructose, and sedoheptulose (GFS). The Medium was renewed every third day. […] Each well was entirely photographed by TissueFax with an ×20 objective and all visible resorption pits were counted and analysed blinded.” for “performed.”
# primary human adipocytes [6] = test: mRNA expression (RT-PCR) in primary human adipocytes differentiated in GF or GFS media; assay type: cell-based; details: GFS (1 g/L each sugar) vs GF (1.5 g/L each), eight days differentiation
# Experimental: Stromal vascular fraction cells (SVFs) from subcutaneous white adipose tissue of a patient undergoing abdominal surgery were isolated as described before (Lindroos et al, Cell Metab. (2013), Jul. 2; 18(1):62-74.). Briefly, adipose tissue was digested with Collagenase II (Worthington) and filtered. SVFs were separated from mature adipocytes by centrifugation, followed by the lysis of erythrocytes in the SVF-fraction (Buffer EL, Qiagen). The purified SVFs were cultured in DMEM/F12, 10% FBS (Gibco, Life Technologies). […] Two days after confluence (day 0), differentiation was induced by adding 1 μM dexamethasone, 1.74 μM insulin, 5 μM troglitazone, […], 17 μM pantothenic acid and 33 μM biotin. After two days, IBMX and dexamethasone were omitted, while insulin and troglitazone were removed on day 4. 50% of the medium was replaced on day 6. Two days later, the cells were harvested for RNA isolation (RNeasy mini kit, Qiagen). Briefly, total RNA was extracted and reverse-transcribed using commercial kits (QIAGEN, Applied Biosystems). Quantitative real-time PCRs were performed on an […] real-time cycler using iTaq SYBR Green Supermix with ROX (BioRad) to measure CARKL, adiponectin, UCP-1, TNFa, IL-6, MCP-1, and beta-actin expression as previously described ([…] et al., Cell Metab. 15 (2012), 813-826). […] Relative expression of target gene was calculated by the delta-delta CT method.
# WT hepatocytes = test: Glucose-induced ECAR in primary hepatocytes; assay type: cell-based, mouse; details: WT hepatocytes in GFS vs GF media, 1 hr carbohydrate starvation, then glucose 1 g/L
# Experimental: as §3
# as §4, with “instructions. Briefly, cells were seeded in seahorse cell plates at a density of 10^4 cells per well for adipocytes and 0.5×10^5 cells per well for hepatocytes.” for “instructions.”
# [7] = tested on: primary murine hepatocytes; test: IL-6 mRNA expression in primary murine hepatocytes in GF or GFS media; assay type: cell-based, mouse; details: hepatocytes pre-cultured two days with sedoheptulose (GFS) vs GF
# Experimental: as §3, §2
# [8] = tested on: bone marrow derived macrophages; test: Cytokine secretion (ELISA) by bone marrow derived macrophages, basal and LPS-induced; assay type: cell-based, mouse; details: ELISA of supernatant over two days, GFS vs GF media
# Experimental: as §1
# T1 sequence (Q00612 whole entry): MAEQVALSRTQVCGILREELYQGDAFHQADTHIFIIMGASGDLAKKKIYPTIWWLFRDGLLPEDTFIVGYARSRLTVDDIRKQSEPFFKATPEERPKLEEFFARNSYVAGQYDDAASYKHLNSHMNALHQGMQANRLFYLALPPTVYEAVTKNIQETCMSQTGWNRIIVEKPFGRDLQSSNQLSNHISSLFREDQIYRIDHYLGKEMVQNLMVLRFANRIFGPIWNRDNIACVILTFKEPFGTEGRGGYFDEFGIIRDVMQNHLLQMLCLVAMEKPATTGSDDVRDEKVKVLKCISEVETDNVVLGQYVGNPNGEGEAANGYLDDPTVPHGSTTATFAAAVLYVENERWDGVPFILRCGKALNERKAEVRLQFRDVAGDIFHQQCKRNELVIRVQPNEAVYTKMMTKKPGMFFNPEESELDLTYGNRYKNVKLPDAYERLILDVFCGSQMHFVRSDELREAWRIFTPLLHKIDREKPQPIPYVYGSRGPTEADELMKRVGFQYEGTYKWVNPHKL
smiles,measurement,setting,value
"O=C(CO)[C@@H](O)[C@H](O)[C@H](O)[C@H](O)CO [sedoheptulose, Sedoheptulose]",sedoheptulose turnover rate (ADP formation),[1],enhanced
same,basal IL-6 mRNA expression,[2],blocked
same,basal TNFa mRNA expression,[2],blocked
same,increase in sedoheptulose serum levels,[3],approximately two-fold
same,"G6PD activity distribution (re-localization of G6PD and reduced activity in the inner space of the cells, as in CARKL overexpressing cells)",[4],same phenotype was achieved
same,cellular oxygen consumption rate (OCR),primary human adipocytes [5],increased
same,extracellular acidification rate (ECAR),primary human adipocytes [5],comparable
same,IL-6 mRNA,mature murine adipocytes,less
same,TNFa mRNA,mature murine adipocytes,less
same,pit formation by osteoclasts,"osteoclasts; 7 days in GFS vs GF media, Corning Osteo Assay plates",reduced
same,larger resorption-pits,osteoclasts; WT osteoclasts cultured in GF or GFS media,found only in the absence of sedoheptulose
same,sedoheptulose kinase CARKL mRNA expression,primary human adipocytes [6],increase
same,glucose-induced ECAR,WT hepatocytes,reduced
same,IL-6 expression,[7],less
same,basal IL-6 secretion,[8],blocked
same,basal TNFa secretion,[8],blocked
